According to publication PMC12384620, “Hit-to-Lead Studies of Pyrazinylpiperazines against Visceral Leishmaniasis: Pharmacokinetic Profile and In Vivo Efficacy of Potent Compounds against Leishmania infantum” (ACS Pharmacology & Translational Science, 2025):

Tests used:
THP-1 cells = tested on: THP-1 cells; set-up: method as in SAR previously reported; conditions: ref SAR previously reported; cited from earlier work
[1] = Hepatotoxicity in HepG2 cells (MTS); type: cell-based; conditions: human, read-out: CC50 against HepG2 cells
Protocol: HepG2 cells were seeded at 2 × 10^4 cells/mL in DMEM, the plates were incubated for 24 h (5% CO2, 37 °C) and the compounds and doxorubicin (used as a positive control) were added in serial dilutions. After 72 h incubation, 15 μL of MTS reagent (CellTiter96) was added to each well, and the plates were incubated for 4 h then read using a microplate absorbance reader at 490 nm. Growth inhibition was expressed as a percentage of the absorbance of the negative control wells.

[2] = tested on: L. infantum promastigotes; assay: Reactive oxygen species production assay (H2DCFDA); type: cell-based, Leishmania infantum; conditions: at IC50 against promastigotes, 24 h; standard 100 μM H2O2
Protocol: The fluorescent dye H2DCFDA was employed to evaluate ROS production. […] After treatment, the parasites were harvested, washed three times with 1 × PBS, and incubated with 10 μM H2DCFDA dye in […] of 1 × PBS in the dark at room temperature for 30 min. Subsequently, the cells were centrifugated, resuspended in ice-cold PBS and kept at 0 °C until reading on a SpectraMax Gemini XPS/EM microplate reader. The median fluorescence intensity (MIF) was measured on a population of at least ten thousand cells and the data was further analyzed using Excel 2021.

O=C(c1ccc(O)c(Cl)c1)N1CCN(c2cnccn2)CC1 [Compound 1, (3-Chloro-4-hydroxyphenyl)(4-(pyrazin-2-yl)piperazin-1-yl)methanone]
CC50 (THP-1 cells): 542 µM

O=C(c1ccc(O)cc1)N1CCN(c2cnccn2)CC1 [Compound 2, (4-Hydroxyphenyl)(4-(pyrazin-2-yl)piperazin-1-yl)methanone]
CC50 at 72 h [1]: > 64 µM
ROS production [2]: comparable to that of the standard H2O2
